Patent US20230346810A1, “ENDOGENOUS STABILIZATION OF CANNABINOIDS” (Abstrax Tech Inc., priority 2022, published 2023)

How the values were obtained:
[1] = Color change / oxidation of cannabinoid oils on exposure to air (visual); assay type: physicochemical; conditions: about 5% CBDA by weight added, homogenized under mild heat (about 70° C.)
[2] = UV-Visible spectroscopy of color purity of THC oils; assay type: physicochemical; conditions: 5% by weight CBDA added, versus sample without CBDA; FIG. 8
Method: The color purities of THC oils with and without acidic cannabinoids were measured using a LabTech BlueStar A UV-Vis Spectrophotometer. The data collection range was from 250 nm to 1100 nm at a scan rate of 3 nm per second. About 1 g of sample was added to scintillation vial followed by addition of 5 mL of ethanol. The solution was agitated for 2 min in order to fully dissolve the oil and transferred to a UV-Vis quartz cuvette. An ethanol background was collected prior to running the samples to reduce solvent.

Structure (SMILES) | color of solution after CBDA addition [1] | visible absorption after CBDA addition (UV-Visible spectra) [2]
CCCCCc1cc(O)c2c(c1)OC(C)(C)[C@@H]1CCC(C)=C[C@@H]21 [Sample D9-THC, Δ^9-tetrahydrocannabinol] | yellow solution with minimal discoloration | –
CCCCCc1cc(O)c2c(c1)OC(C)(C)[C@@H]1CC=C(C)C[C@@H]21 [Sample D8-THC, Δ8-tetrahydrocannabinol] | – | less visible absorption
